According to patent US20230310356A1, “COMPOSITION FOR PREVENTING, AMELIORATING, OR TREATING BRAIN DAMAGE AND MILD COGNITIVE IMPAIRMENT COMPRISING GLUTAMINE AS EFFECTIVE COMPONENT” (INDUSTRY-ACADEMIC COOPERATION FOUNDATION GYEONGSANG …, priority 2020, published 2023):

What was measured:
ROS/RNS = ROS/RNS levels in plasma, PFC and hippocampus after CIS and glutamine supplementation; type: in vivo, mouse; details: STR+Gln vs STR
Protocol: Control (CTL) is a group which received normal diet (common diet with nutritional balance) without any stress, CTL+Gln group is a normal diet group supplemented with glutamine (150 mg/kg of feed) and without any stress, STR is a normal diet group under stress, and STR+Gln group is a normal diet group supplemented with glutamine (150 mg/kg of feed) under stress. The stress group (STR) was individually brought by force to a restrainer for 2 hours every day (i.e., between 2 PM and 4 PM) so that the animals are applied with chronic immobilization stress for 15 days. Fifty-one model animals of the second cohort, i.e., 12 to 13 animals per group, were not subjected to any behavior analysis but immediately sacrificed after completion of the last immobilization stress. Then, ROS/RNS levels in the plasma, PFC, and hippocampus were examined. Specifically, ROS/RNS was examined by using ROS/RNS assay kit (STA-347; Cell Biolabs, San Diego, CA, USA) and following the manufacturer's protocol. PFC and hippocampal tissues were subjected to tissue homogenization by using Bullert blender after adding glass beads to RIPA (radioimmunoprecipitation assay) buffer solution. After the ultrasonication for 2 minutes, they were centrifuged for 10 minutes at conditions including 4° C. and 12,000×g. Then, the measurement of fluorescence intensity using Tecan Infinite F200 PRO MicroReader was repeated 3 times.

corticosterone = assay: Change in plasma corticosterone level after CIS and glutamine supplementation; type: in vivo, mouse; details: STR+Gln vs STR; glutamine 150 mg/kg of feed
Protocol: In the present invention, C57BL/6 male mice (7-weeks old, KOATECH, South Korea) were kept under standard conditions (i.e., temperature of 22 to 24° C., humidity of 50 to 70%, and 12-hour light/dark cycle with lighting on 6 AM), and the animals were allowed to have free access to diets and water. The animals used for the present invention were handled according to the protocol (GNU-161128-M0068) acknowledged by Gyeongsang National University Institutional Animal Care and Use Committee (GNU IACUC), which follows the guidelines of National Institutes of Health (NIH, Bethesda, MD, USA). Control (CTL) is a group which received normal diet (common diet with nutritional balance) without any stress, CTL+Gln group is a normal diet group supplemented with glutamine (150 mg/kg of feed) and without any stress, STR is a normal diet group under stress, and STR+Gln group is a normal diet group supplemented with glutamine (150 mg/kg of feed) under stress. The stress group (STR) was individually brought by force to a restrainer for 2 hours every day (i.e., between 2 PM and 4 PM) so that the animals are applied with chronic immobilization stress for 15 days.

[1] = tested on: 3×TG-AD female mouse (model of Alzheimer's disease); assay: ORT cognitive ability test in animal model of Alzheimer's disease with glutamine diet; type: in vivo; details: 6-weel old compared to the 2-weeks old
Protocol: As an animal model for cognitive ability evaluation, a 7-weeks old 3×TG-AD female mouse (8 mice. model of Alzheimer's disease) and a C57BL/6 female mouse (10 mice, control) were selected. The animals of each type were divided into 2 groups, and each group was provided with regular animal feed (i.e., normal diet, ND) or glutamine feed (Gln). The glutamine diet group was allowed to consume the feed containing 150 mg glutamine/kg diet, from 2-months old stage to the end of test (i.e., 6 to 7-months old stage). Health state of the animal was checked by measuring, once a week, the bodyweight of the animal and food intake (FIG. 7A). Cognitive ability test of the mouse as an animal model established above was determined by ORT (object recognition test). The animal was habituated in a box for 2 days. On Day 3, it was allowed to explore two identical objects for 10 minutes. On Day 4, one of the two objects was replaced with a novel object, and then, the animal was allowed to explore further for 5 minutes (FIG. 7B). The time spent by animal for exploring after approaching within 1 cm from the periphery of both objects was measured. After carrying out the calculation using Formula (3) below, DI (discrimination index) was calculated and compared to each other. In the present invention, a different novel object was employed for carrying out each test. […]

NC(=O)CC[C@H](N)C(=O)O [glutamine]
level of active oxygen/nitrogen species (ROS/RNS) in hippocampus (ROS/RNS; hippocampal tissue): lower level | level of active oxygen/nitrogen species (ROS/RNS) in plasma (ROS/RNS; plasma): lower level | level of active oxygen/nitrogen species (ROS/RNS) in PFC (ROS/RNS; prefrontal cortex): lower level | plasma corticosterone level (corticosterone): statistically significant decrease | impairment in cognitive ability (object recognition ability, ORT) ([1]; 3×TG-AD glutamine diet group, 150 mg glutamine/kg diet): no significant impairment | decrease of DI value in ORT ([1]; 3×TG-AD group with glutamine diet, average from each individual): 0.1
